In assay [1] the target is GABA-A receptor; anion channel. Put plainly: Affinity to displace [3H]flunitrazepam from Benzodiazepine receptor in bovine brain membrane. The format is cell membranes.
The target of assay [2] is GABA-A receptor; anion channel (Bos taurus) (UniProt P10063+P08220+P20237+P08219+P10064+P22300). Put plainly: Percent inhibition of [3H]flunitrazepam binding to GABA-A Benzodiazepine receptor of bovine brain membranes at 34 uM. In kind it is cell membranes.

The structures appear in SMILES notation.

What is called IC50 is the concentration at which inhibition is half-maximal. Higher therefore signals lower potency. A word on the inhibition: it is the share of the control response that was lost under treatment. A higher inhibition goes with strong suppression.

In assay [1], `Cc1cccc(-n2nc(-c3ccccc3)c3c(=O)n(C)c4ccccc4c32)c1` came in with an IC50 of 90 nM. This lies in the double-digit nanomolar range.

`COc1cccc(-n2nc(C)c3c(O)nc4ccccc4c32)c1` came in with an IC50 in assay [1] of 7500 nM.

Turning to `Cc1ccc(-n2cc(-c3ccccc3)c3c(=O)oc4ccccc4c32)cc1`, the IC50 in assay [1] was 172 nM.

As to `Cc1cccc(-n2nnc3c(=O)oc4ccccc4c32)c1`, the inhibition in assay [2] was found to be 18%.

In turn, `COC(=O)c1cc2c(cn1)[nH]c1ccccc12` [BETA-CCM] registered an IC50 in assay [1] of 16 nM.

The compound `O=c1oc2ccccc2c2c1c(-c1ccccc1)cn2-c1ccc(Cl)cc1` showed a concentration for half-maximal inhibition (IC50) in assay [1] of 40 nM.

In turn, `Cc1nn(-c2cccc(Br)c2)c2c1c(O)nc1ccccc12` showed a half-maximal inhibitory concentration (IC50) in assay [1] of 2500 nM.

In assay [1], `Cc1cc(C)cc(-n2cc(-c3ccccc3)c3c(=O)oc4ccccc4c32)c1` displayed an IC50 of 8.6 nM.

As to `COc1ccc(-n2cc(-c3ccccc3)c3c(=O)oc4ccccc4c32)cc1`, the IC50 in assay [1] came to 62 nM.

For `Cc1cccc(-n2cc(-c3ccccc3)c3c(=O)oc4ccccc4c32)c1`, the IC50 in assay [1] worked out at 25 nM.

`O=c1oc2ccccc2c2c1cc(-c1ccccc1)n2-c1ccccc1` displayed an inhibition in assay [2] of 30%.

`CN1C(=O)CN=C(c2ccccc2)c2cc(Cl)ccc21` [DIAZEPAM]: the IC50 in assay [1] was 13 nM.

Consider `Cn1c(=O)c2c(-c3ccccc3)nn(-c3cccc(Cl)c3)c2c2ccccc21`, for which, in assay [1], the concentration for half-maximal inhibition (IC50) was 70 nM.

`O=c1oc2ccccc2c2c1c(-c1ccccc1)cn2-c1ccccc1`: the IC50 in assay [1] worked out at 65 nM.

In assay [1], `COc1cccc(-n2cc(-c3ccccc3)c3c(=O)oc4ccccc4c32)c1` showed an IC50 of 48 nM.

Turning to `O=c1oc2ccccc2c2c1c(-c1ccccc1)cn2-c1cccc(Cl)c1`, the IC50 in assay [1] worked out at 10 nM.

`O=c1oc2ccccc2c2c1nnn2-c1ccccc1` yielded an inhibition in assay [2] of 0%.

The values are drawn from ChEMBL document CHEMBL1125055, “Tricyclic heteroaromatic systems. [1]benzopyranopyrrol-4-ones and [1]benzopyrano-1,2,3-triazol-4-ones as benzodiazepine receptor ligands. Synthesis and structure-activity relationships” (J Med Chem, 1990).
